Laboratory results as given in the NIST ThermoML archive (doi:10.1016/j.jct.2016.12.019).

Experiment: xn = mol fraction of the nth substance listed
Conditions: 100 kPa, Liquid; for viscosity: Capillary tube (Ostwald / Ubbelohde) method; for speed of sound: Frequency=2 MHz, Linear variable-path acoustic interferometer; for mass density: Vibrating tube method

CCN(CC)c1ccccc1 [N,N-diethylaniline] + CCCCCCCCCCO
Conditions	mass density [kg/m3]	speed of sound [m/s]	viscosity [mPa·s]
303.15 K, x1 = 0.1141	831.36	1364.5	7.932
303.15 K, x1 = 0.2218	839.38	1366.8	6.521
303.15 K, x1 = 0.3717	852.13	1372.3	4.96
303.15 K, x1 = 0.4886	863.05	1378.1	4.007
303.15 K, x1 = 0.5815	872.51	1383.9	3.386
303.15 K, x1 = 0.6645	881.58	1390.1	2.918
303.15 K, x1 = 0.7545	892.16	1398.3	2.494
303.15 K, x1 = 0.8324	902.01	1406.8	2.185
303.15 K, x1 = 0.9121	912.85	1417.5	1.929
303.15 K, x1 = 1	925.8	1432	1.711
308.15 K, x1 = 0.1141	827.63	1345.2	6.651
308.15 K, x1 = 0.2218	835.9	1347.8	5.497
308.15 K, x1 = 0.3717	848.55	1353.7	4.217
308.15 K, x1 = 0.4886	859.44	1359.9	3.43
308.15 K, x1 = 0.5815	868.83	1366	2.914
308.15 K, x1 = 0.6645	877.84	1372.5	2.523
308.15 K, x1 = 0.7545	888.35	1380.9	2.167
308.15 K, x1 = 0.8324	898.14	1389.7	1.913
308.15 K, x1 = 0.9121	908.91	1400.6	1.705
308.15 K, x1 = 1	921.8	1416	1.537
313.15 K, x1 = 0.1141	824	1329.2	5.619
313.15 K, x1 = 0.2218	832.24	1331.8	4.671
313.15 K, x1 = 0.3717	844.85	1337.5	3.616
313.15 K, x1 = 0.4886	855.71	1343.5	2.963
313.15 K, x1 = 0.5815	865.07	1349.5	2.529
313.15 K, x1 = 0.6645	874.05	1355.7	2.199
313.15 K, x1 = 0.7545	884.52	1363.8	1.898
313.15 K, x1 = 0.8324	894.28	1372.3	1.687
313.15 K, x1 = 0.9121	905.03	1382.9	1.52
313.15 K, x1 = 1	917.9	1398	1.4
318.15 K, x1 = 0.1141	819.43	1320.2	4.835
318.15 K, x1 = 0.2218	827.69	1321.6	4.032
318.15 K, x1 = 0.3717	840.35	1326.2	3.137
318.15 K, x1 = 0.4886	851.26	1331	2.582
318.15 K, x1 = 0.5815	860.67	1336	2.21
318.15 K, x1 = 0.6645	869.69	1341.2	1.928
318.15 K, x1 = 0.7545	880.21	1348	1.672
318.15 K, x1 = 0.8324	890.03	1355.4	1.493
318.15 K, x1 = 0.9121	900.83	1364.7	1.359
318.15 K, x1 = 1	913.8	1378	1.276
